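Where inhibition never reached the appropriate level, the endpoint shown equals the highest concentration tested. Otherwise, values were interpolated linearly from a five-concentration, 48-hour dose response in 96-well plates. GI50 marks 50% less growth. TGI is the concentration that stops growth completely.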
What was measured:
Assay in all cases: growth of human tumour cells (NCI), 48 h
786-0 renal = system: 786-0 renal
A498 renal = system: A498 renal
A549 NSCLC = system: A549 NSCLC
ACHN renal = system: ACHN renal
BT-549 breast = system: BT-549 breast
CAKI-1 renal = system: CAKI-1 renal
DU-145 prostate = system: DU-145 prostate
EKVX NSCLC = system: EKVX NSCLC
HCC-2998 colon = system: HCC-2998 colon
HCT-116 colon = system: HCT-116 colon
HCT-15 colon = system: HCT-15 colon
HL-60(TB) leukemia = system: HL-60(TB) leukemia
HOP-62 NSCLC = system: HOP-62 NSCLC
HOP-92 NSCLC = system: HOP-92 NSCLC
HS 578T breast = system: HS 578T breast
IGROV1 ovarian = system: IGROV1 ovarian
KM12 colon = system: KM12 colon
LOX IMVI melanoma = system: LOX IMVI melanoma
M14 melanoma = system: M14 melanoma
MALME-3M melanoma = system: MALME-3M melanoma
MCF7 breast = system: MCF7 breast
MDA-MB-231 breast = system: MDA-MB-231 breast
MDA-MB-435 = system: MDA-MB-435
MDA-MB-468 breast = system: MDA-MB-468 breast
NCI-H226 lung = system: NCI-H226 lung
NCI-H23 lung = system: NCI-H23 lung
NCI/ADR-RES ovarian = system: NCI/ADR-RES ovarian
OVCAR-3 ovarian = system: OVCAR-3 ovarian
OVCAR-4 ovarian = system: OVCAR-4 ovarian
OVCAR-5 ovarian = system: OVCAR-5 ovarian
OVCAR-8 ovarian = system: OVCAR-8 ovarian
PC-3 prostate = system: PC-3 prostate
RPMI-8226 leukemia = system: RPMI-8226 leukemia
RXF 393 renal = system: RXF 393 renal
SF-268 CNS = system: SF-268 CNS
SF-295 CNS = system: SF-295 CNS
SF-539 CNS = system: SF-539 CNS
SK-MEL-2 melanoma = system: SK-MEL-2 melanoma
SK-MEL-28 melanoma = system: SK-MEL-28 melanoma
SK-MEL-5 melanoma = system: SK-MEL-5 melanoma
SK-OV-3 ovarian = system: SK-OV-3 ovarian
SN12C renal = system: SN12C renal
SNB-19 CNS = system: SNB-19 CNS
T-47D breast = system: T-47D breast
TK-10 renal = system: TK-10 renal
UACC-62 melanoma = system: UACC-62 melanoma
UO-31 renal = system: UO-31 renal
CCRF-CEM leukemia = system: CCRF-CEM leukemia
COLO 205 colon = system: COLO 205 colon
HT29 colon = system: HT29 colon
K-562 leukemia = system: K-562 leukemia
MOLT-4 leukemia = system: MOLT-4 leukemia
NCI-H522 lung = system: NCI-H522 lung
SNB-75 CNS = system: SNB-75 CNS
SR leukemia = system: SR leukemia
U251 CNS = system: U251 CNS
UACC-257 melanoma = system: UACC-257 melanoma

Structure (SMILES): COc1ccc2c(c1)c(-c1cc3nc(-c4cn(C)c5ncccc45)cc(N)n3n1)cn2C
- GI50 (786-0 renal): 1740 nM
- TGI (786-0 renal): 3.2 µM
- GI50 (A498 renal): 14.8 µM
- TGI (A498 renal): 34.8 µM
- GI50 (A549 NSCLC): 3370 nM
- TGI (A549 NSCLC): 13.8 µM
- GI50 (ACHN renal): 2090 nM
- TGI (ACHN renal): 4.24 µM
- GI50 (BT-549 breast): 1830 nM
- TGI (BT-549 breast): 3.77 µM
- GI50 (CAKI-1 renal): 2190 nM
- TGI (CAKI-1 renal): 6.46 µM
- GI50 (DU-145 prostate): 2880 nM
- TGI (DU-145 prostate): 8.26 µM
- GI50 (EKVX NSCLC): 3.05 µM
- TGI (EKVX NSCLC): 12.5 µM
- GI50 (HCC-2998 colon): 1810 nM
- TGI (HCC-2998 colon): 3.56 µM
- GI50 (HCT-116 colon): 1670 nM
- TGI (HCT-116 colon): 3.13 µM
- GI50 (HCT-15 colon): 1760 nM
- TGI (HCT-15 colon): 3.6 µM
- GI50 (HL-60(TB) leukemia): 2170 nM
- TGI (HL-60(TB) leukemia): 5.1 µM
- GI50 (HOP-62 NSCLC): 3.11 µM
- TGI (HOP-62 NSCLC): 13.3 µM
- GI50 (HOP-92 NSCLC): 1610 nM
- TGI (HOP-92 NSCLC): 3.82 µM
- GI50 (HS 578T breast): 2090 nM
- TGI (HS 578T breast): 6.27 µM
- GI50 (IGROV1 ovarian): 2060 nM
- TGI (IGROV1 ovarian): 4.64 µM
- GI50 (KM12 colon): 1970 nM
- TGI (KM12 colon): 4.32 µM
- GI50 (LOX IMVI melanoma): 1790 nM
- TGI (LOX IMVI melanoma): 3.31 µM
- GI50 (M14 melanoma): 1800 nM
- TGI (M14 melanoma): 3.44 µM
- GI50 (MALME-3M melanoma): 1740 nM
- TGI (MALME-3M melanoma): 3.17 µM
- GI50 (MCF7 breast): 2270 nM
- TGI (MCF7 breast): 5.91 µM
- GI50 (MDA-MB-231 breast): 1840 nM
- TGI (MDA-MB-231 breast): 3.89 µM
- GI50 (MDA-MB-435): 1720 nM
- TGI (MDA-MB-435): 3.35 µM
- GI50 (MDA-MB-468 breast): 1820 nM
- TGI (MDA-MB-468 breast): 3.52 µM
- GI50 (NCI-H226 lung): 2360 nM
- TGI (NCI-H226 lung): 6.92 µM
- GI50 (NCI-H23 lung): 3.92 µM
- TGI (NCI-H23 lung): 17.9 µM
- GI50 (NCI/ADR-RES ovarian): 3.62 µM
- TGI (NCI/ADR-RES ovarian): 23.5 µM
- GI50 (OVCAR-3 ovarian): 1980 nM
- TGI (OVCAR-3 ovarian): 4.14 µM
- GI50 (OVCAR-4 ovarian): 2130 nM
- TGI (OVCAR-4 ovarian): 5 µM
- GI50 (OVCAR-5 ovarian): 4.76 µM
- TGI (OVCAR-5 ovarian): 18 µM
- GI50 (OVCAR-8 ovarian): 3.17 µM
- TGI (OVCAR-8 ovarian): > 100 µM
- GI50 (PC-3 prostate): 2750 nM
- TGI (PC-3 prostate): > 100 µM
- GI50 (RPMI-8226 leukemia): 2120 nM
- TGI (RPMI-8226 leukemia): 5.44 µM
- GI50 (RXF 393 renal): 1660 nM
- TGI (RXF 393 renal): 3.21 µM
- GI50 (SF-268 CNS): 2640 nM
- TGI (SF-268 CNS): 8.65 µM
- GI50 (SF-295 CNS): 1810 nM
- TGI (SF-295 CNS): 3.49 µM
- GI50 (SF-539 CNS): 1650 nM
- TGI (SF-539 CNS): 3.06 µM
- GI50 (SK-MEL-2 melanoma): 2830 nM
- TGI (SK-MEL-2 melanoma): 8.59 µM
- GI50 (SK-MEL-28 melanoma): 1640 nM
- TGI (SK-MEL-28 melanoma): 3.02 µM
- GI50 (SK-MEL-5 melanoma): 1690 nM
- TGI (SK-MEL-5 melanoma): 3.24 µM
- GI50 (SK-OV-3 ovarian): 4.65 µM
- TGI (SK-OV-3 ovarian): 33 µM
- GI50 (SN12C renal): 5.18 µM
- TGI (SN12C renal): 18.2 µM
- GI50 (SNB-19 CNS): 3980 nM
- TGI (SNB-19 CNS): 16.8 µM
- GI50 (T-47D breast): 3.24 µM
- TGI (T-47D breast): 16.3 µM
- GI50 (TK-10 renal): 4250 nM
- TGI (TK-10 renal): 14.5 µM
- GI50 (UACC-62 melanoma): 1610 nM
- TGI (UACC-62 melanoma): 3020 nM
- GI50 (UO-31 renal): 1850 nM
- TGI (UO-31 renal): 4.57 µM

Structure (SMILES): Cn1cc(-c2cc3nc(-c4c[nH]c5ccc(Br)cc45)cc(N)n3n2)c2ccccc21
- GI50 (786-0 renal): 1600 nM
- TGI (786-0 renal): 3.27 µM
- GI50 (A498 renal): 1.67 µM
- TGI (A498 renal): 3.34 µM
- GI50 (A549 NSCLC): 1530 nM
- TGI (A549 NSCLC): 3.45 µM
- GI50 (ACHN renal): 1690 nM
- TGI (ACHN renal): 3.13 µM
- GI50 (CAKI-1 renal): 1500 nM
- TGI (CAKI-1 renal): 3.06 µM
- GI50 (CCRF-CEM leukemia): 2670 nM
- TGI (CCRF-CEM leukemia): 9.34 µM
- GI50 (COLO 205 colon): 1890 nM
- TGI (COLO 205 colon): 3.51 µM
- GI50 (DU-145 prostate): 1920 nM
- TGI (DU-145 prostate): 3.75 µM
- GI50 (HCC-2998 colon): 1790 nM
- TGI (HCC-2998 colon): 3.26 µM
- GI50 (HCT-116 colon): 3000 nM
- TGI (HCT-116 colon): > 100 µM
- GI50 (HCT-15 colon): 1430 nM
- TGI (HCT-15 colon): 2.79 µM
- GI50 (HL-60(TB) leukemia): 1840 nM
- TGI (HL-60(TB) leukemia): 4.34 µM
- GI50 (HOP-92 NSCLC): 1510 nM
- TGI (HOP-92 NSCLC): 3.08 µM
- GI50 (HS 578T breast): 1980 nM
- TGI (HS 578T breast): 4.87 µM
- GI50 (HT29 colon): 1660 nM
- TGI (HT29 colon): 3.08 µM
- GI50 (IGROV1 ovarian): 1500 nM
- TGI (IGROV1 ovarian): 2.98 µM
- GI50 (K-562 leukemia): 2290 nM
- TGI (K-562 leukemia): 5.94 µM
- GI50 (LOX IMVI melanoma): 1680 nM
- TGI (LOX IMVI melanoma): 3.04 µM
- GI50 (M14 melanoma): 2290 nM
- TGI (M14 melanoma): 5.78 µM
- GI50 (MALME-3M melanoma): 1660 nM
- TGI (MALME-3M melanoma): 3.01 µM
- GI50 (MDA-MB-231 breast): 1770 nM
- TGI (MDA-MB-231 breast): 3.17 µM
- GI50 (MDA-MB-435): 1710 nM
- TGI (MDA-MB-435): 3.09 µM
- GI50 (MDA-MB-468 breast): 1490 nM
- TGI (MDA-MB-468 breast): 3.01 µM
- GI50 (MOLT-4 leukemia): 1670 nM
- TGI (MOLT-4 leukemia): 5.15 µM
- GI50 (NCI-H226 lung): 1960 nM
- TGI (NCI-H226 lung): 5.07 µM
- GI50 (NCI-H522 lung): 1500 nM
- TGI (NCI-H522 lung): 3.08 µM
- GI50 (OVCAR-4 ovarian): 1710 nM
- TGI (OVCAR-4 ovarian): 3.49 µM
- GI50 (OVCAR-5 ovarian): 1.62 µM
- TGI (OVCAR-5 ovarian): 3.26 µM
- GI50 (PC-3 prostate): 1640 nM
- TGI (PC-3 prostate): 3.24 µM
- GI50 (RPMI-8226 leukemia): 2730 nM
- TGI (RPMI-8226 leukemia): 7.93 µM
- GI50 (SF-268 CNS): 1890 nM
- TGI (SF-268 CNS): 4.43 µM
- GI50 (SF-539 CNS): 1660 nM
- TGI (SF-539 CNS): 3.07 µM
- GI50 (SK-MEL-2 melanoma): 1740 nM
- TGI (SK-MEL-2 melanoma): 3.48 µM
- GI50 (SK-MEL-28 melanoma): 1780 nM
- TGI (SK-MEL-28 melanoma): 3.22 µM
- GI50 (SK-MEL-5 melanoma): 1710 nM
- TGI (SK-MEL-5 melanoma): 3.15 µM
- GI50 (SK-OV-3 ovarian): 1.98 µM
- TGI (SK-OV-3 ovarian): 4.03 µM
- GI50 (SN12C renal): 1.65 µM
- TGI (SN12C renal): 3.05 µM
- GI50 (SNB-19 CNS): 1670 nM
- TGI (SNB-19 CNS): 3.09 µM
- GI50 (SNB-75 CNS): 1320 nM
- TGI (SNB-75 CNS): 3.11 µM
- GI50 (SR leukemia): 1650 nM
- TGI (SR leukemia): 5.28 µM
- GI50 (TK-10 renal): 1430 nM
- TGI (TK-10 renal): 2.79 µM
- GI50 (U251 CNS): 1720 nM
- TGI (U251 CNS): 3.27 µM
- GI50 (UACC-257 melanoma): 1720 nM
- TGI (UACC-257 melanoma): 3.26 µM
- GI50 (UACC-62 melanoma): 1540 nM
- TGI (UACC-62 melanoma): 2920 nM
- GI50 (UO-31 renal): 1430 nM
- TGI (UO-31 renal): 2.73 µM

Source: PubChem BioAssay (NCI)
